Data reported in the supplement of paper PMC10307832.

Experiments:
Test in all cases: relative viability (nuclei count vs DMSO), 5 days (fraction); higher = more cells survive
Ispinesib + Palbociclib = compound: Cc1ccc(C(=O)N(CCCN)[C@@H](c2nc3cc(Cl)ccc3c(=O)n2Cc2ccccc2)C(C)C)cc1 [Ispinesib] + CC(=O)c1c(C)c2cnc(Nc3ccc(N4CCNCC4)cn3)nc2n(C2CCCC2)c1=O [Palbociclib] (partner 0.5 µM)
Method in brief: (§1)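 Lung cancer cell lines were pin-tool dosed in 1536-well plates on the day after seeding, with either a lone drug or a fixed anchor-drug dose plus five library-drug doses (not always all listed) in √10 steps. Nuclei were counted on 4× images after 5 days. Relative viability is the ratio of treated-well to vehicle-well nuclei counts, with each value a median of duplicate plates.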

Ispinesib + Navitoclax = compound: Cc1ccc(C(=O)N(CCCN)[C@@H](c2nc3cc(Cl)ccc3c(=O)n2Cc2ccccc2)C(C)C)cc1 [Ispinesib] + CC1(C)CCC(c2ccc(Cl)cc2)=C(CN2CCN(c3ccc(C(=O)NS(=O)(=O)c4ccc(N[C@H](CCN5CCOCC5)CSc5ccccc5)c(S(=O)(=O)C(F)(F)F)c4)cc3)CC2)C1 [Navitoclax] (partner 0.5 µM)
Method in brief: as §1

Ispinesib + Foretinib = compound: Cc1ccc(C(=O)N(CCCN)[C@@H](c2nc3cc(Cl)ccc3c(=O)n2Cc2ccccc2)C(C)C)cc1 [Ispinesib] + COc1cc2c(Oc3ccc(NC(=O)C4(C(=O)Nc5ccc(F)cc5)CC4)cc3F)ccnc2cc1OCCCN1CCOCC1 [Foretinib] (partner 0.25 µM)
Method in brief: as §1

Linsitinib + Dasatinib = compound: C[C@]1(O)C[C@@H](c2nc(-c3ccc4ccc(-c5ccccc5)nc4c3)c3c(N)nccn32)C1 [Linsitinib] + Cc1nc(Nc2ncc(C(=O)Nc3c(C)cccc3Cl)s2)cc(N2CCN(CCO)CC2)n1 [Dasatinib] (partner 0.075 µM)
Method in brief: as §1

Cell Line | relative viability (Ispinesib + Palbociclib; first compound 0.001 µM) | relative viability (Ispinesib + Palbociclib; first compound 0.003162 µM) | relative viability (Ispinesib + Palbociclib; first compound 0.01 µM) | relative viability (Ispinesib + Palbociclib; first compound 0.03162 µM) | relative viability (Ispinesib + Palbociclib; first compound 0.1 µM) | relative viability (Ispinesib + Navitoclax; first compound 0.001 µM) | relative viability (Ispinesib + Navitoclax; first compound 0.003162 µM) | relative viability (Ispinesib + Navitoclax; first compound 0.01 µM) | relative viability (Ispinesib + Navitoclax; first compound 0.03162 µM) | relative viability (Ispinesib + Navitoclax; first compound 0.1 µM) | relative viability (Ispinesib + Foretinib; first compound 0.001 µM) | relative viability (Ispinesib + Foretinib; first compound 0.003162 µM) | relative viability (Ispinesib + Foretinib; first compound 0.01 µM) | relative viability (Ispinesib + Foretinib; first compound 0.03162 µM) | relative viability (Ispinesib + Foretinib; first compound 0.1 µM) | relative viability (Linsitinib + Dasatinib; first compound 0.01 µM) | relative viability (Linsitinib + Dasatinib; first compound 0.03162 µM) | relative viability (Linsitinib + Dasatinib; first compound 0.1 µM) | relative viability (Linsitinib + Dasatinib; first compound 0.3162 µM) | relative viability (Linsitinib + Dasatinib; first compound 1 µM)
LCLC-97TM1 | 0.238 | 0.343 | 0.279 | 0.181 | 0.119 | 0.433 | 0.489 | 0.52 | 0.557 | 0.157 | 0.928 | 0.948 | 0.933 | 0.856 | 0.56 | 0.842 | 0.64 | 0.842 | 0.602 | 0.614
NCI-H520 | 0.186 | 0.223 | 0.221 | 0.21 | 0.167 | 1.02 | 1.14 | 1.04 | 0.274 | 0.286 | 0.906 | 0.832 | 0.866 | 0.379 | 0.306 | 0.191 | 0.192 | 0.2 | – | 0.195
A-427 | 0.53 | 0.538 | 0.55 | 0.322 | 0.282 | 0.938 | 0.995 | 1.06 | 0.827 | 0.903 | 1.06 | 1.22 | 1.16 | 1.07 | 0.762 | 0.712 | 0.78 | 0.723 | – | 0.631
NCI-H460 | 0.288 | 0.181 | 0.184 | 0.0542 | 0.0736 | 1.43 | 1.33 | – | 0.785 | 0.0262 | 0.901 | 0.995 | 1.13 | 0.879 | 0.0487 | 0.578 | 0.393 | 0.441 | 0.34 | 0.146
NCI-H1395 | 0.721 | 0.642 | 0.412 | 0.444 | 0.463 | 1.32 | 1.1 | 1.16 | 0.553 | 0.326 | 1.06 | 0.998 | 1.03 | 0.866 | 0.356 | 0.425 | 0.372 | 0.399 | 0.441 | 0.43
NCI-H23 | 0.457 | 0.529 | 0.629 | 0.372 | 0.187 | 0.803 | 0.783 | 1.04 | 0.794 | 0.472 | 1.05 | 1.03 | 1.17 | 0.934 | 0.299 | 0.837 | 0.807 | 0.571 | 0.415 | 0.366
LOU-NH91 | 0.535 | 0.548 | 0.513 | 0.52 | 0.336 | 0.647 | 0.71 | 0.64 | 0.407 | 0.333 | 0.917 | 0.879 | 0.957 | 0.829 | 0.472 | 0.561 | 0.612 | 0.545 | 0.645 | 0.456
NCI-H2009 | 0.234 | 0.153 | 0.222 | 0.113 | 0.169 | 1.28 | 1.23 | 1.32 | 0.678 | 0.374 | 1.28 | 1.33 | 1.32 | 1.09 | 0.431 | 0.285 | 0.262 | 0.274 | – | 0.2
NCI-H2126 | 0.335 | 0.393 | 0.314 | 0.339 | 0.385 | 0.844 | 0.862 | 0.861 | 0.842 | 0.818 | 1.27 | 1.35 | 1.39 | 1.14 | 1.03 | 0.596 | 0.649 | 0.527 | 0.273 | 0.27
ChaGo-K-1 | 0.8 | 1.01 | 1.11 | 0.985 | 0.845 | 1.11 | 1.45 | 0.995 | 0.732 | 0.335 | 0.909 | 0.867 | 0.993 | 0.926 | 0.629 | 0.649 | 0.5 | 0.588 | 0.415 | 0.588
NCI-H1437 | 0.329 | 0.319 | 0.325 | 0.332 | 0.13 | 1.28 | 1.1 | 1.43 | 1.06 | 0.295 | 1.3 | 1.39 | 1.39 | 1.27 | 0.748 | 0.352 | 0.308 | 0.463 | 0.505 | 0.463
SK-LU-1 | 0.323 | 0.412 | 0.379 | 0.312 | 0.325 | 0.955 | 0.794 | 1.23 | 0.415 | 0.164 | 1.01 | 0.806 | 0.942 | 0.821 | 0.286 | 0.193 | – | 0.168 | 0.182 | 0.115
NCI-H838 | 0.23 | 0.23 | 0.262 | 0.212 | 0.137 | 1.33 | 1.23 | 1.37 | 0.994 | 0.25 | 1.07 | 1.14 | 1.16 | 1 | 0.555 | 0.273 | 0.258 | 0.267 | 0.227 | 0.225
NCI-H1755 | 0.467 | 0.451 | 0.457 | 0.431 | 0.463 | 1.01 | 1.15 | 1.09 | 0.917 | 0.7 | 0.909 | 0.987 | 1.01 | 0.874 | 0.737 | 0.428 | 0.431 | 0.427 | 0.363 | 0.229
NCI-H2228 | 1 | 1.05 | 1.08 | 0.544 | 0.386 | 0.896 | 0.896 | 1.37 | 0.878 | 0.187 | 0.909 | 0.957 | 1.24 | 1 | 0.322 | 0.48 | 0.483 | 0.52 | 0.421 | 0.387
